Paper PMC7071076, “Antibacterial Activity and Pharmacokinetic Profile of a Promising Antibacterial Agent: 22-(2-Amino-phenylsulfanyl)-22-Deoxypleuromutilin” (Molecules, 2020)
Values after ≈ are worked out from the molar mass of the structure shown.

Legend:
MRSA ATCC 43300 [1] = test: Constant concentration time-kill curves; type: cell-based, Staphylococcus aureus
Protocol: Time–kill curve experiments were performed in triplicate according previous report. In this experiment, MRSA, in logarithmic phase, was diluted to 10^6 CFU/mL with MH broth. […] The mixtures and control which was free of drug were cultured at 37 °C with shaking. A total of 20 µL aliquots from solutions were serially diluted 10-fold in 0.9% saline, at different time intervals (0, 3, 6, 9, and 24 h). Then the dilutions were plated onto MH agar medium and incubated at 37 °C for 18–24 h. The bacterial colonies were counted, and results were represented as the logarithm of the colony numbers. The time-kill curve was constructed by plotting log CFU/mL versus time.

MRSA ATCC 43300 [2] = test: MRSA wound infection model: wound bacterial burden; type: in vivo, mice
Protocol: Six weeks SPF-ICR female mice were used for this study. The Experimental model, inducted of inflammatory in mice by skin excision, was established referring to existing methods with some alterations. The mice were anesthetized with the intravenous injection of 1% sodium pentobarbital. After their hair on the back was shaved, the mice were anesthetized and the back skin was perforated with a biopsy perforator at a depth of fascia injury. The inoculum (50 μL), containing 10^9 CFU/mL of the indicated microorganism (MRSA ATCC 43300), was applied on the wound for three times at 30 min intervals. 100 μL drug (3 mg/mL) was administrated on the wound at 1 h after inoculation for three consecutive days. A total of 100 μL blank matrix was given to the infected control group and the non-infected group in the same way. The wound was wrapped with sterile gauze. During the treatment, all mice were kept individually and free to eat and drink.
At the end of the examination, mice were anesthetized and killed. Tissue samples, reaching to the muscle membrane, were removed from the middle of the wound surface and homogenized in 0.9% saline. Serially diluted aliquots of homogenate were cultured on high-salt mannitol agar plate at 37 °C for 24 h. The log of the colony number was used for statistical analysis.

MRSA N20 = test: MIC testing, clinical strain; type: cell-based; settings: Staphylococcus aureus
From the text: (§1) Methicillin-resistant Staphylococcus aureus (MRSA) ATCC 43300, Staphylococcus aureus ATCC 29213, Escherichia coli ATCC 25922, Salmonella typhimurium ATCC 14028, Enterococcus faecalis ATCC 29212, and Enterococcus faecium ATCC 35667 were obtained from the China Institute of Veterinary Drug Control (Beijing, China). Five clinical strains of MRSA (N7, N9, N20, N30, and N54) were isolated from diseased pig tissues of South China Agricultural University and Foshan University Animal Hospital. All clinical strains were identified as MRSA by Gram stain, catalase reaction, coagulase test, staphylococcus API identification system test, MecA gene test, and methicillin MIC test.
(§2) The MIC of amphenmulin against MRSA, Escherichia coli, Salmonella typhimurium, Enterococcus faecalis, and Enterococcus faecium were determined using tiamulin as controls. MIC values were measured by the method of previous work. Staphylococcus aureus ATCC 29213 was used as the quality control bacteria, and the quality control range was referred to the Clinical and Laboratory Standards Institute (CLSI). The bacteria solution was diluted to ~10^6 CFU/mL with Mueller–Hinton (MH) broth for MRSA, Escherichia coli and Salmonella typhimurium while Trypticase Soy Broth for Enterococcus faecalis and Enterococcus faecium. Drugs were dissolved in an aqueous solution of N, N-dimethylformamide (DMF) at a concentration of 2560 µg/mL, and then diluted with broth to prepare working solution (1280 µg/mL). The drug susceptibility testing was performed in 96-well plate. A total of 20 µL of working solution was added into column 1 and well mixed as a 10-fold dilution, following which Serial 2-fold dilutions were prepared to provide concentration ranges of 128–0.0078 µg/mL. Blank broth (no cultures) and bacteria solution (drugs replaced by blank solvent) were set as drug-free controls. Each 96-well plate was cultured at 37 °C for 24 h. The MIC value is the lowest concentration of amphenmulin which inhibits the visible growth of bacteria. The experiment was repeated three times.

MRSA N7 = test: MIC testing, clinical strain; type: cell-based; settings: Staphylococcus aureus
From the text: as §1, §2

MRSA N30 = test: MIC testing, clinical strain; type: cell-based; settings: Staphylococcus aureus
From the text: as §1, §2

MRSA N54 = test: MIC testing, clinical strain; type: cell-based; settings: Staphylococcus aureus
From the text: as §1, §2

MRSA N9 = test: MIC testing, clinical strain; type: cell-based; settings: Staphylococcus aureus
From the text: as §1, §2

SMILES: C=C[C@]1(C)C[C@@H](OC(=O)CSc2ccccc2N)[C@]2(C)[C@H](C)CC[C@]3(CCC(=O)[C@H]32)[C@@H](C)[C@@H]1O [Amphenmulin, 22-(2-amino-phenylsulfanyl)-22-deoxypleuromutilin]
- colony numbers of MRSA (MRSA ATCC 43300 [1]; 0.5×MIC, 3 h): 7.17±0.08 log CFU/mL
- colony numbers of MRSA (MRSA ATCC 43300 [1]; 0.5×MIC, 6 h): 7.83±0.16 log CFU/mL
- colony numbers of MRSA (MRSA ATCC 43300 [1]; 0.5×MIC, 9 h): 8.22±0.15 log CFU/mL
- colony numbers of MRSA (MRSA ATCC 43300 [1]; 0.5×MIC, 24 h): 8.33±0.10 log CFU/mL
- colony numbers of MRSA (MRSA ATCC 43300 [1]; 1×MIC, 3 h): 6.84±0.08 log CFU/mL
- colony numbers of MRSA (MRSA ATCC 43300 [1]; 1×MIC, 6 h): 7.44±0.06 log CFU/mL
- colony numbers of MRSA (MRSA ATCC 43300 [1]; 1×MIC, 9 h): 7.86±0.13 log CFU/mL
- colony numbers of MRSA (MRSA ATCC 43300 [1]; 1×MIC, 24 h): 7.70±0.46 log CFU/mL
- colony numbers of MRSA (MRSA ATCC 43300 [1]; 2×MIC, 3 h): 6.43±0.13 log CFU/mL
- colony numbers of MRSA (MRSA ATCC 43300 [1]; 2×MIC, 6 h): 6.56±0.23 log CFU/mL
- colony numbers of MRSA (MRSA ATCC 43300 [1]; 2×MIC, 9 h): 7.07±0.42 log CFU/mL
- colony numbers of MRSA (MRSA ATCC 43300 [1]; 2×MIC, 24 h): 7.26±0.62 log CFU/mL
- colony numbers of MRSA (MRSA ATCC 43300 [1]; 4×MIC, 3 h): 5.96±0.66 log CFU/mL
- colony numbers of MRSA (MRSA ATCC 43300 [1]; 4×MIC, 6 h): 6.13±0.06 log CFU/mL
- colony numbers of MRSA (MRSA ATCC 43300 [1]; 4×MIC, 9 h): 5.77±0.15 log CFU/mL
- colony numbers of MRSA (MRSA ATCC 43300 [1]; 4×MIC, 24 h): 4.04±0.58 log CFU/mL
- colony numbers of MRSA (MRSA ATCC 43300 [1]; 8×MIC, 3 h): 5.91±0.03 log CFU/mL
- colony numbers of MRSA (MRSA ATCC 43300 [1]; 8×MIC, 6 h): 5.98±0.09 log CFU/mL
- colony numbers of MRSA (MRSA ATCC 43300 [1]; 8×MIC, 9 h): 5.78±0.09 log CFU/mL
- colony numbers of MRSA (MRSA ATCC 43300 [1]; 8×MIC, 24 h): 3.55±0.16 log CFU/mL
- colony numbers of MRSA (MRSA ATCC 43300 [1]; 16×MIC, 3 h): 5.79±0.12 log CFU/mL
- colony numbers of MRSA (MRSA ATCC 43300 [1]; 16×MIC, 6 h): 5.77±0.15 log CFU/mL
- colony numbers of MRSA (MRSA ATCC 43300 [1]; 16×MIC, 9 h): 5.64±0.11 log CFU/mL
- colony numbers of MRSA (MRSA ATCC 43300 [1]; 16×MIC, 24 h): 2.97±0.06 log CFU/mL
- colony numbers of MRSA (MRSA ATCC 43300 [1]; 32×MIC, 3 h): 5.60±0.18 log CFU/mL
- colony numbers of MRSA (MRSA ATCC 43300 [1]; 32×MIC, 6 h): 5.91±0.56 log CFU/mL
- colony numbers of MRSA (MRSA ATCC 43300 [1]; 32×MIC, 9 h): 5.11±0.36 log CFU/mL
- colony numbers of MRSA (MRSA ATCC 43300 [1]; 32×MIC, 24 h): 2.43±0.67 log CFU/mL
- type of antibacterial activity in time-kill curve (MRSA ATCC 43300 [1]; at the concentration of 4× MIC): bacteriostatic activity
- number of bacteria in wound tissue vs infected group (MRSA ATCC 43300 [2]; one day after treatment, p < 0.05): significant decrease
- number of bacteria in wound tissue (MRSA ATCC 43300 [2]; three days after treatment, 100 μL drug (3 mg/mL) on the wound): 4.47 ± 0.66 log10 CFU/mL
- MIC (MRSA N20): 4 µg/mL (≈ 8.24 µM)
- MIC (MRSA N7): 4 µg/mL (≈ 8.24 µM)
- MIC (MRSA N30): 8 µg/mL (≈ 16.5 µM)
- MIC (MRSA N54): 0.0156 µg/mL (≈ 0.0321 µM)
- MIC (MRSA N9): 0.0156 µg/mL (≈ 0.0321 µM)
